Source: PubChem BioAssay (NCI)
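Cells were grown in 96-well plates and exposed to each compound for 48 hours at five concentrations; endpoints were interpolated linearly between bracketing concentrations, or set to the highest concentration if not reached. Definition used: TGI = concentration required for complete inhibition of growth.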

How the values were obtained:
Assay in all cases: NCI-60 cell line screen, 48 h
786-0 renal = system: 786-0 renal
A498 renal = system: A498 renal
A549 NSCLC = system: A549 NSCLC
ACHN renal = system: ACHN renal
CAKI-1 renal = system: CAKI-1 renal
CCRF-CEM leukemia = system: CCRF-CEM leukemia
COLO 205 colon = system: COLO 205 colon
DMS 114 small cell lung = system: DMS 114 small cell lung
DMS 273 small cell lung = system: DMS 273 small cell lung
EKVX NSCLC = system: EKVX NSCLC
HCC-2998 colon = system: HCC-2998 colon
HCT-116 colon = system: HCT-116 colon
HCT-15 colon = system: HCT-15 colon
HL-60(TB) leukemia = system: HL-60(TB) leukemia
HOP-18 NSCLC = system: HOP-18 NSCLC
HOP-62 NSCLC = system: HOP-62 NSCLC
HOP-92 NSCLC = system: HOP-92 NSCLC
HT29 colon = system: HT29 colon
IGROV1 ovarian = system: IGROV1 ovarian
K-562 leukemia = system: K-562 leukemia
KM12 colon = system: KM12 colon
KM20L2 colon = system: KM20L2 colon
LOX IMVI melanoma = system: LOX IMVI melanoma
LXFL 529 NSCLC = system: LXFL 529 NSCLC
M14 melanoma = system: M14 melanoma
M19-MEL melanoma = system: M19-MEL melanoma
MALME-3M melanoma = system: MALME-3M melanoma
MOLT-4 leukemia = system: MOLT-4 leukemia
NCI-H226 lung = system: NCI-H226 lung
NCI-H23 lung = system: NCI-H23 lung
NCI-H460 lung = system: NCI-H460 lung
NCI-H522 lung = system: NCI-H522 lung
OVCAR-3 ovarian = system: OVCAR-3 ovarian
OVCAR-4 ovarian = system: OVCAR-4 ovarian
OVCAR-5 ovarian = system: OVCAR-5 ovarian
OVCAR-8 ovarian = system: OVCAR-8 ovarian
RPMI-8226 leukemia = system: RPMI-8226 leukemia
RXF-631 renal = system: RXF-631 renal
SF-268 CNS = system: SF-268 CNS
SF-295 CNS = system: SF-295 CNS
SF-539 CNS = system: SF-539 CNS
SK-MEL-2 melanoma = system: SK-MEL-2 melanoma
SK-MEL-28 melanoma = system: SK-MEL-28 melanoma
SK-MEL-5 melanoma = system: SK-MEL-5 melanoma
SK-OV-3 ovarian = system: SK-OV-3 ovarian
SN12C renal = system: SN12C renal
SNB-19 CNS = system: SNB-19 CNS
SNB-75 CNS = system: SNB-75 CNS
SR leukemia = system: SR leukemia
SW-620 colon = system: SW-620 colon
TK-10 renal = system: TK-10 renal
U251 CNS = system: U251 CNS
UACC-257 melanoma = system: UACC-257 melanoma
UACC-62 melanoma = system: UACC-62 melanoma
UO-31 renal = system: UO-31 renal
XF 498 CNS = system: XF 498 CNS
DLD-1 colon = system: DLD-1 colon
RXF 393 renal = system: RXF 393 renal
SNB-78 CNS = system: SNB-78 CNS

COc1cc2ccnc(-c3n[nH]c4cc(OC)c(OC)cc34)c2cc1OC was tested, and the TGI (786-0 renal) was > 100 µM, the TGI (A498 renal) was > 100 µM and the TGI (A549 NSCLC) was > 100 µM. The TGI (ACHN renal) was > 100 µM, the TGI (CAKI-1 renal) was > 100 µM and the TGI (CCRF-CEM leukemia) was > 100 µM. The TGI (COLO 205 colon) was > 100 µM, the TGI (DMS 114 small cell lung) was > 100 µM and the TGI (DMS 273 small cell lung) was > 100 µM. For the same compound, the TGI (EKVX NSCLC) was > 100 µM, the TGI (HCC-2998 colon) was > 100 µM and the TGI (HCT-116 colon) was > 100 µM. For the same compound, the TGI (HCT-15 colon) was > 100 µM, the TGI (HL-60(TB) leukemia) was > 100 µM and the TGI (HOP-18 NSCLC) was > 100 µM. The TGI (HOP-62 NSCLC) was > 100 µM, the TGI (HOP-92 NSCLC) was > 100 µM and the TGI (HT29 colon) was > 100 µM. For the same compound, the TGI (IGROV1 ovarian) was > 100 µM, the TGI (K-562 leukemia) was > 100 µM and the TGI (KM12 colon) was > 100 µM. The TGI (KM20L2 colon) was > 100 µM, the TGI (LOX IMVI melanoma) was > 100 µM and the TGI (LXFL 529 NSCLC) was > 100 µM. For the same compound, the TGI (M14 melanoma) was > 100 µM, the TGI (M19-MEL melanoma) was > 100 µM and the TGI (MALME-3M melanoma) was > 100 µM. The TGI (MOLT-4 leukemia) was > 100 µM, the TGI (NCI-H226 lung) was > 100 µM and the TGI (NCI-H23 lung) was > 100 µM. The TGI (NCI-H460 lung) was > 100 µM, the TGI (NCI-H522 lung) was 69.7 µM and the TGI (OVCAR-3 ovarian) was > 100 µM. For the same compound, the TGI (OVCAR-4 ovarian) was > 100 µM, the TGI (OVCAR-5 ovarian) was > 100 µM and the TGI (OVCAR-8 ovarian) was > 100 µM. The TGI (RPMI-8226 leukemia) was > 100 µM, the TGI (RXF-631 renal) was 93.4 µM and the TGI (SF-268 CNS) was > 100 µM. For the same compound, the TGI (SF-295 CNS) was > 100 µM, the TGI (SF-539 CNS) was > 100 µM and the TGI (SK-MEL-2 melanoma) was > 100 µM. For the same compound, the TGI (SK-MEL-28 melanoma) was > 100 µM, the TGI (SK-MEL-5 melanoma) was > 100 µM and the TGI (SK-OV-3 ovarian) was > 100 µM. For the same compound, the TGI (SN12C renal) was > 100 µM, the TGI (SNB-19 CNS) was > 100 µM and the TGI (SNB-75 CNS) was > 100 µM. For the same compound, the TGI (SR leukemia) was > 100 µM, the TGI (SW-620 colon) was > 100 µM and the TGI (TK-10 renal) was > 100 µM. For the same compound, the TGI (U251 CNS) was > 100 µM, the TGI (UACC-257 melanoma) was > 100 µM and the TGI (UACC-62 melanoma) was > 100 µM. The TGI (UO-31 renal) was > 100 µM and the TGI (XF 498 CNS) was > 100 µM.
With C[C@@H]1C[C@@H]2C(=O)N(c3ccccc3)C(=O)[C@@H]2c2[nH]c3ccc(Br)cc3c21 the TGI (786-0 renal) was > 100 µM, the TGI (A498 renal) was > 100 µM and the TGI (A549 NSCLC) was 90.1 µM. For the same compound, the TGI (ACHN renal) was > 100 µM, the TGI (CAKI-1 renal) was > 100 µM and the TGI (CCRF-CEM leukemia) was > 100 µM. For the same compound, the TGI (COLO 205 colon) was > 100 µM, the TGI (DLD-1 colon) was > 100 µM and the TGI (DMS 114 small cell lung) was > 100 µM. For the same compound, the TGI (DMS 273 small cell lung) was > 100 µM, the TGI (EKVX NSCLC) was > 100 µM and the TGI (HCC-2998 colon) was > 100 µM. The TGI (HCT-116 colon) was > 100 µM, the TGI (HCT-15 colon) was > 100 µM and the TGI (HL-60(TB) leukemia) was > 100 µM. For the same compound, the TGI (HOP-18 NSCLC) was 62.4 µM, the TGI (HOP-62 NSCLC) was 47.6 µM and the TGI (HOP-92 NSCLC) was 62.2 µM. The TGI (IGROV1 ovarian) was > 100 µM, the TGI (K-562 leukemia) was > 100 µM and the TGI (KM12 colon) was 75.4 µM. For the same compound, the TGI (KM20L2 colon) was > 100 µM, the TGI (LOX IMVI melanoma) was > 100 µM and the TGI (LXFL 529 NSCLC) was > 100 µM. For the same compound, the TGI (M14 melanoma) was > 100 µM, the TGI (M19-MEL melanoma) was > 100 µM and the TGI (MALME-3M melanoma) was > 100 µM. The TGI (MOLT-4 leukemia) was > 100 µM, the TGI (NCI-H23 lung) was > 100 µM and the TGI (NCI-H460 lung) was > 100 µM. The TGI (NCI-H522 lung) was 78.5 µM, the TGI (OVCAR-3 ovarian) was 51.7 µM and the TGI (OVCAR-4 ovarian) was 57.9 µM. For the same compound, the TGI (OVCAR-5 ovarian) was > 100 µM, the TGI (OVCAR-8 ovarian) was 47.1 µM and the TGI (RXF 393 renal) was 78.5 µM. For the same compound, the TGI (RXF-631 renal) was > 100 µM, the TGI (SF-268 CNS) was > 100 µM and the TGI (SF-295 CNS) was 90.9 µM. For the same compound, the TGI (SF-539 CNS) was > 100 µM, the TGI (SK-MEL-2 melanoma) was > 100 µM and the TGI (SK-MEL-28 melanoma) was > 100 µM. For the same compound, the TGI (SK-MEL-5 melanoma) was > 100 µM, the TGI (SK-OV-3 ovarian) was 44.5 µM and the TGI (SN12C renal) was > 100 µM. The TGI (SNB-19 CNS) was > 100 µM, the TGI (SNB-75 CNS) was 41.9 µM and the TGI (SNB-78 CNS) was 71 µM. For the same compound, the TGI (SR leukemia) was > 100 µM, the TGI (SW-620 colon) was > 100 µM and the TGI (TK-10 renal) was > 100 µM. The TGI (U251 CNS) was 38.8 µM, the TGI (UACC-257 melanoma) was > 100 µM and the TGI (UACC-62 melanoma) was > 100 µM. For the same compound, the TGI (UO-31 renal) was > 100 µM and the TGI (XF 498 CNS) was 81.3 µM.
